# pEC50: −log10 of the molar value.
# How the values were obtained:
# [1] = target: GLP-1R (Homo sapiens, UniProt P43220); assay: GLP-1R activation: cAMP increase in CHO cells stably expressing GLP-1R; format: cell-based; conditions: cAMP increase, CHO cells stably expressing GLP-1R, 10 point dose response, 30 minutes incubation; read-out: EC50
# [2] = Microsomal stability, human liver microsomes (predicted hepatic clearance); conditions: predicted from in vitro microsomal stability data
# GLP-1R, sequence (P43220 24-463): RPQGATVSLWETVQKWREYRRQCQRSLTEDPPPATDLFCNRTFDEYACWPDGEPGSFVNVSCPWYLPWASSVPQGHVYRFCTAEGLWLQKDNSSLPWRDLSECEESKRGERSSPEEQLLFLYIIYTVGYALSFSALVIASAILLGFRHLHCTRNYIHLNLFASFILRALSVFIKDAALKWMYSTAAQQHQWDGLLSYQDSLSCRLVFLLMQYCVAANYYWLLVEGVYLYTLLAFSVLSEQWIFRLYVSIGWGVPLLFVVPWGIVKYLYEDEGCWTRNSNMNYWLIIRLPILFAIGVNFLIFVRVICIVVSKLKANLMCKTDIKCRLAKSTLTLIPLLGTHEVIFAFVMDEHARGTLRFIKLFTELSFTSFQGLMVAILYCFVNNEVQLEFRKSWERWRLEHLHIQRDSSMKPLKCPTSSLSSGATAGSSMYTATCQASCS
pEC50 [1],Predicted Hepatic Clearance (Pred. Cl.) [2] [mL/min/kg],SMILES
8.91,<1.83,"O=C(O)c1ccc2nc(Cc3cc(F)c(-c4ccnc(OCc5ccc(Cl)cc5F)n4)cc3F)n(CC3(CF)CC3)c2n1 [Example 120, 2-(4-(2-((4-chloro-2-fluorobenzyl)oxy)pyrimidin-4-yl)-2,5-difluorobenzyl)-3-((1-(fluoromethyl)cyclopropyl)methyl)-3H-imidazo[4,5-b]pyridine-5-carboxylic acid]"
9.18,2.67,"N#Cc1ccc(COc2nccc(-c3cc(F)c(Cc4nc5ccc(C(=O)O)cc5n4C[C@@H]4CCO4)c(F)c3)n2)c(F)c1 [Example 121, (S)-2-(4-(2-((4-cyano-2-fluorobenzyl)oxy)pyrimidin-4-yl)-2,6-difluorobenzyl)-1-(oxetan-2-ylmethyl)-1H-benzo[d]imidazole-6-carboxylic acid]"
7.51,<1.83,"COCCn1c(Cc2ccc(-c3ccc(Cl)c(OCc4ccc(C#N)cc4F)n3)cc2F)nc2ccc(C(=O)O)cc21 [Example 122, 2-(4-(5-chloro-6-((4-cyano-2-fluorobenzyl)oxy)pyridin-2-yl)-2-fluorobenzyl)-1-(2-methoxyethyl)-1H-benzo[d]imidazole-6-carboxylic acid]"
8.51,5.17,"C[C@]1(Cn2c(Cc3ccc(-c4cccc(OCc5ccc(C#N)cc5F)n4)cc3F)nc3ccc(C(=O)O)cc32)CCO1 [Example 123, (R)-2-(4-(6-((4-cyano-2-fluorobenzyl)oxy)pyridin-2-yl)-2-fluorobenzyl)-1-((2-methyloxetan-2-yl)methyl)-1H-benzo[d]imidazole-6-carboxylic acid]"
9.17,3.17,"COCCn1c(Cc2c(F)cc(-c3ncc(F)c(OCc4ccc(C#N)cc4F)n3)c(F)c2F)nc2ccc(C(=O)O)cc21 [Example 124, 2-(4-(4-((4-cyano-2-fluorobenzyl)oxy)-5-fluoropyrimidin-2-yl)-2,3,6-trifluorobenzyl)-1-(2-methoxyethyl)-1H-benzo[d]imidazole-6-carboxylic acid]"
9.47,2.58,"N#Cc1ccc(COc2nc(-c3ccc(Cc4nc5ccc(C(=O)O)cc5n4C[C@@H]4CCO4)cc3F)ccc2F)c(F)c1 [Example 125, (S)-2-(4-(6-((4-cyano-2-fluorobenzyl)oxy)-5-fluoropyridin-2-yl)-3-fluorobenzyl)-1-(oxetan-2-ylmethyl)-1H-benzo[d]imidazole-6-carboxylic acid]"
8.43,4.67,"COCCn1c(Cc2ccc(-c3ncc(F)c(OCc4ccc(C#N)cc4F)n3)cc2F)nc2ccc(C(=O)O)cc21 [Example 126, 2-(4-(4-((4-cyano-2-fluorobenzyl)oxy)-5-fluoropyrimidin-2-yl)-2-fluorobenzyl)-1-(2-methoxyethyl)-1H-benzo[d]imidazole-6-carboxylic acid]"
9.47,6.7,"N#CCC1(Cn2c(Cc3ccc(-c4ncc(F)c(OCc5ccc(C#N)cc5F)n4)c(F)c3)nc3ccc(C(=O)O)cc32)CC1 [Example 127, 2-(4-(4-((4-cyano-2-fluorobenzyl)oxy)-5-fluoropyrimidin-2-yl)-3-fluorobenzyl)-1-((1-(cyanomethyl)cyclopropyl)methyl)-1H-benzo[d]imidazole-6-carboxylic acid]"
9.29,<1.83,"N#Cc1ccc(COc2nc(-c3ccc(Cc4nc5ccc(C(=O)O)cc5n4C[C@@H]4CCO4)c(F)c3)ccc2F)c(F)c1 [Example 128, (S)-2-(4-(6-((4-cyano-2-fluorobenzyl)oxy)-5-fluoropyridin-2-yl)-2-fluorobenzyl)-1-(oxetan-2-ylmethyl)-1H-benzo[d]imidazole-6-carboxylic acid]"
9.15,3.17,"N#CCC1(Cn2c(Cc3cc(F)c(-c4nc(OCc5ccc(C#N)cc5F)ncc4F)cc3F)nc3ccc(C(=O)O)nc32)CC1 [Example 129, 2-(4-(2-((4-cyano-2-fluorobenzyl)oxy)-5-fluoropyrimidin-4-yl)-2,5-difluorobenzyl)-3-((1-(cyanomethyl)cyclopropyl)methyl)-3H-imidazo[4,5-b]pyridine-5-carboxylic acid]"
9.96,5.5,"N#CCC1(Cn2c(Cc3cc(F)c(-c4ccc(F)c(OCc5ccc(C#N)cc5F)n4)cc3F)nc3ccc(C(=O)O)nc32)CC1 [Example 130, 2-(4-(6-((4-cyano-2-fluorobenzyl)oxy)-5-fluoropyridin-2-yl)-2,5-difluorobenzyl)-3-((1-(cyanomethyl)cyclopropyl)methyl)-3H-imidazo[4,5-b]pyridine-5-carboxylic acid]"
10.10,4,"N#Cc1ccc(COc2nc(-c3cc(F)c(Cc4nc5c(F)cc(C(=O)O)cc5n4C[C@@H]4CCO4)cc3F)ncc2F)c(F)c1 [Example 131, (S)-2-(4-(4-((4-cyano-2-fluorobenzyl)oxy)-5-fluoropyrimidin-2-yl)-2,5-difluorobenzyl)-4-fluoro-1-(oxetan-2-ylmethyl)-1H-benzo[d]imidazole-6-carboxylic acid]"
10.30,3.58,"N#Cc1ccc(COc2nc(-c3ccc(Cc4nc5c(F)cc(C(=O)O)cc5n4C[C@@H]4CCO4)c(F)c3)ccc2F)c(F)c1 [Example 132, (S)-2-(4-(6-((4-cyano-2-fluorobenzyl)oxy)-5-fluoropyridin-2-yl)-2-fluorobenzyl)-4-fluoro-1-(oxetan-2-ylmethyl)-1H-benzo[d]imidazole-6-carboxylic acid]"
9.59,5.58,"N#CCC1(Cn2c(Cc3cc(F)c(-c4ncc(F)c(OCc5ccc(C#N)cc5F)n4)cc3F)nc3ccc(C(=O)O)cc32)CC1 [Example 133, 2-(4-(4-((4-cyano-2-fluorobenzyl)oxy)-5-fluoropyrimidin-2-yl)-2,5-difluorobenzyl)-1-((1-(cyanomethyl)cyclopropyl)methyl)-1H-benzo[d]imidazole-6-carboxylic acid]"
9.47,<1.83,"N#Cc1ccc(COc2nc(-c3ccc(Cc4nc5ccc(C(=O)O)cc5n4CC4(CF)CC4)c(F)c3)ccc2F)c(F)c1 [Example 134, 2-(4-(6-((4-cyano-2-fluorobenzyl)oxy)-5-fluoropyridin-2-yl)-2-fluorobenzyl)-1-((1-(fluoromethyl)cyclopropyl)methyl)-1H-benzo[d]imidazole-6-carboxylic acid]"
8.75,<1.83,"COCCn1c(Cc2ccc(-c3cccc(OCc4ccc(C#N)c5ccoc45)n3)cc2F)nc2ccc(C(=O)O)cc21 [Example 135, 2-(4-(6-((4-cyanobenzofuran-7-yl)methoxy)pyridin-2-yl)-2-fluorobenzyl)-1-(2-methoxyethyl)-1H-benzo[d]imidazole-6-carboxylic acid]"
7.61,9,"COCCn1c(Cc2ccc(-c3cccc(OCc4cccc5ccoc45)n3)cc2F)nc2ccc(C(=O)O)cc21 [Example 136, 2-(4-(6-(benzofuran-7-ylmethoxy)pyridin-2-yl)-2-fluorobenzyl)-1-(2-methoxyethyl)-1H-benzo[d]imidazole-6-carboxylic acid]"
7.49,4.83,"COCCn1c(Cc2ccc(-c3cccc(OCc4cccc(C5CC5)c4)n3)cc2F)nc2ccc(C(=O)O)cc21 [Example 137, 2-(4-(6-((3-cyclopropylbenzyl)oxy)pyridin-2-yl)-2-fluorobenzyl)-1-(2-methoxyethyl)-1H-benzo[d]imidazole-6-carboxylic acid]"
7.07,7.5,"COCCn1c(Cc2ccc(-c3cccc(OCc4cccc(OC(F)F)c4F)n3)cc2F)nc2ccc(C(=O)O)cc21 [Example 138, 2-(4-(6-((3-(difluoromethoxy)-2-fluorobenzyl)oxy)pyridin-2-yl)-2-fluorobenzyl)-1-(2-methoxyethyl)-1H-benzo[d]imidazole-6-carboxylic acid]"
7.58,7.17,"COCCn1c(Cc2ccc(-c3cccc(OCc4cccc(OCC(F)F)c4)n3)cc2F)nc2ccc(C(=O)O)cc21 [Example 139, 2-(4-(6-((3-(2,2-difluoroethoxy)benzyl)oxy)pyridin-2-yl)-2-fluorobenzyl)-1-(2-methoxyethyl)-1H-benzo[d]imidazole-6-carboxylic acid]"
6.70,9.33,"COCCn1c(Cc2ccc(-c3cccc(OCc4cccc(OC(F)F)c4OC)n3)cc2F)nc2ccc(C(=O)O)cc21 [Example 140, 2-(4-(6-((3-(difluoromethoxy)-2-methoxybenzyl)oxy)pyridin-2-yl)-2-fluorobenzyl)-1-(2-methoxyethyl)-1H-benzo[d]imidazole-6-carboxylic acid]"
7.10,5.5,"COCCn1c(Cc2ccc(-c3cccc(OCc4cc(C(C)C)ccc4F)n3)cc2F)nc2ccc(C(=O)O)cc21 [Example 141, 2-(2-fluoro-4-(6-((2-fluoro-5-isopropylbenzyl)oxy)pyridin-2-yl)benzyl)-1-(2-methoxyethyl)-1H-benzo[d]imidazole-6-carboxylic acid]"
6.79,8.83,"COCCn1c(Cc2ccc(-c3cccc(OCc4cccc(C(C)(C)C#N)c4)n3)cc2F)nc2ccc(C(=O)O)cc21 [Example 142, 2-(4-(6-((3-(2-cyanopropan-2-yl)benzyl)oxy)pyridin-2-yl)-2-fluorobenzyl)-1-(2-methoxyethyl)-1H-benzo[d]imidazole-6-carboxylic acid]"
8.59,5.33,"COCCn1c(Cc2ccc(-c3cccc(OCc4ccc(Cl)c5ccoc45)n3)cc2F)nc2ccc(C(=O)O)cc21 [Example 143, 2-(4-(6-((4-chlorobenzofuran-7-yl)methoxy)pyridin-2-yl)-2-fluorobenzyl)-1-(2-methoxyethyl)-1H-benzo[d]imidazole-6-carboxylic acid]"

# Source: patent US11702404B2, “GLP-1R modulating compounds” (priority 2019, dated 2023)
